# Read-outs that look alike come from different tables or passages of the source.
# Assays:
# [1] = test system: S. epidermidis (MRSE) 23760; experiment: MIC, agar incorporation method; assay type: cell-based, Staphylococcus epidermidis; conditions: S. No. 11, S. epidermidis (MRSE) 23760
# [2] = test system: S. pneumoniae 1275; experiment: MIC, agar incorporation method; assay type: cell-based, Streptococcus pneumoniae; conditions: S. No. 57, S. pneumoniae 1275
# [3] = test system: Salmonella 205; experiment: MIC, agar incorporation method; assay type: cell-based; conditions: S. No. 26, Salmonella 205
# Method: The compounds of the invention display antibacterial activity when tested by the agar incorporation method. The following minimum inhibitory concentrations (μg/ml) were obtained for representative compounds of the invention which are given below in the following tables.
# Briefly, the compounds were dissolved in DMSO and doubling dilution of the compounds were incorporated into Meer Hilton agar before solidification. Inoculum was prepared by suspending 4 to 5 colonies into 5 ml of normal saline solution and adjusting the turbidity to 0.5 Macfarland turbidity standard tables (1.5×10^8 CFU/ml), after appropriate dilutions, 10^4 CFU/spot was transfered into the surface of dried plate and incubated for 18 hours (24 hours for MRSN studies). The concentration showing no growth of the inoculated culture was recorded as the MIC. Appropriate ATCC standard strains were simultaneously tested and result recorded only when the MIC's against standard antibiotics were within the acceptable range.
# [4] = test system: S. aureus (MRSA) ST450; experiment: MIC, agar incorporation method; assay type: cell-based, Staphylococcus aureus; conditions: S. No. 6, S. aureus (MRSA) ST450
# [5] = test system: S. pneumoniae AB-3; experiment: MIC, agar incorporation method; assay type: cell-based, Streptococcus pneumoniae; conditions: S. No. 32, S. pneumoniae AB-3
# [6] = test system: S pneumoniae 1294.; experiment: MIC, agar incorporation method; assay type: cell-based, Streptococcus pneumoniae; conditions: S. No. 55, S pneumoniae 1294.
# [7] = test system: H. influenzae 35056; experiment: MIC against Haemophilus strains; assay type: cell-based; conditions: s. No. 1, H. influenzae 35056
# [8] = test system: S. epidermidis (MRSE)32965; experiment: MIC, agar incorporation method; assay type: cell-based, Staphylococcus epidermidis; conditions: S. No. 13, S. epidermidis (MRSE)32965
# [9] = test system: E. faecalis SP 346 (VRE); experiment: MIC, agar incorporation method; assay type: cell-based; conditions: S. No. 20, E. faecalis SP 346 (VRE)
# [10] = test system: S. aureus (Smith 49951); experiment: MIC, agar incorporation method; assay type: cell-based, Staphylococcus aureus; conditions: S. No. 9, S. aureus (Smith 49951)
# [11] = test system: S. pneumoniae 217; experiment: MIC, agar incorporation method; assay type: cell-based, Streptococcus pneumoniae; conditions: S. No. 38, S. pneumoniae 217
# [12] = test system: S. pneumoniae ATCC 49619; experiment: MIC, agar incorporation method; assay type: cell-based, Streptococcus pneumoniae; conditions: S. No. 48, S. pneumoniae ATCC 49619
# [13] = test system: S. pneumoniae CS 1687; experiment: MIC, agar incorporation method; assay type: cell-based, Streptococcus pneumoniae; conditions: S. No. 44, S. pneumoniae CS 1687
# [14] = test system: S. aureus ATCC29213; experiment: MIC, agar incorporation method; assay type: cell-based, Staphylococcus aureus; conditions: S. No. 2, S. aureus ATCC29213
# [15] = test system: S. pneumoniae 1251; experiment: MIC, agar incorporation method; assay type: cell-based, Streptococcus pneumoniae; conditions: S. No. 54, S. pneumoniae 1251
# [16] = test system: Moraxella cata. M2; experiment: MIC, agar incorporation method; assay type: cell-based; conditions: S. No. 59, Moraxella cata. M2
# [17] = test system: H. influenzae 1745; experiment: MIC against Haemophilus strains; assay type: cell-based; conditions: s. No. 9, H. influenzae 1745
# [18] = test system: S. pneumoniae AB 31; experiment: MIC, agar incorporation method; assay type: cell-based, Streptococcus pneumoniae; conditions: S. No. 36, S. pneumoniae AB 31
# [19] = test system: S. aureus SG 511; experiment: MIC, agar incorporation method; assay type: cell-based, Staphylococcus aureus; conditions: S. No. 3, S. aureus SG 511
# [20] = test system: (MRSA) 562; experiment: MIC, agar incorporation method; assay type: cell-based, Staphylococcus aureus; conditions: S. No. 8, (MRSA) 562
# [21] = test system: S. pneumoniae AB 34; experiment: MIC, agar incorporation method; assay type: cell-based, Streptococcus pneumoniae; conditions: S. No. 49, S. pneumoniae AB 34
# [22] = test system: S. pneumoniae 1256; experiment: MIC, agar incorporation method; assay type: cell-based, Streptococcus pneumoniae; conditions: S. No. 56, S. pneumoniae 1256
# [23] = Staphylococcus epidermidis, read-out: MIC
# [24] = Streptococcus pneumoniae, read-out: MIC
# [25] = Staphylococcus aureus, read-out: MIC
# [26] = Streptococcus pneumoniae, AB3, read-out: MIC
# [27] = Haemophilus influenzae, read-out: MIC
# [28] = Enterococcus faecalis, read-out: MIC
# [29] = Streptococcus pneumoniae, ATCC49619, read-out: MIC
# [30] = Streptococcus pneumoniae, CS1687, read-out: MIC
# [31] = Streptococcus pneumoniae, AB31, read-out: MIC
# [32] = Staphylococcus aureus, SG511, read-out: MIC
# [33] = Streptococcus pneumoniae, AB34, read-out: MIC
structure (smiles),measurement,setting,value
"CC(=O)NC[C@H]1CN(c2ccc(N3CCN(c4ccc(C=O)s4)CC3)c(F)c2)C(=O)O1 [Compound No. 2, (S)—N-[[3-[3-Fluoro-4-[4-(5-formyl-2-thienyl)-1-piperazinyl]phenyl]-2-oxo-5-oxazolidinyl]methyl]acetamide]",MIC,[1]; [23],< 0.25 µg/mL
same,MIC,[2]; [24],< 0.25 µg/mL
same,MIC,[3]; read-out: MIC,> 16 µg/mL
same,MIC,[4]; [25],1 µg/mL
same,MIC,[5]; [26],< 0.25 µg/mL
same,MIC,[6]; [24],0.5 µg/mL
same,MIC,[7]; [27],16 µg/mL
same,MIC,[8]; [23],< 0.25 µg/mL
same,MIC,[9]; [28],0.5 µg/mL
same,MIC,[10]; [25],0.5 µg/mL
same,MIC,[11]; [24],0.5 µg/mL
same,MIC,[12]; [29],0.5 µg/mL
same,MIC,[13]; [30],0.5 µg/mL
same,MIC,[14]; [25],1 µg/mL
same,MIC,[15]; [24],0.5 µg/mL
same,MIC,[16]; read-out: MIC,0.5 µg/mL
same,MIC,[17]; [27],> 16 µg/mL
same,MIC,[18]; [31],0.5 µg/mL
same,MIC,[19]; [32],0.5 µg/mL
same,MIC,[20]; [25],0.5 µg/mL
same,MIC,[21]; [33],0.5 µg/mL
same,MIC,[22]; [24],< 0.25 µg/mL
"CC(=O)NC[C@H]1CN(c2ccc(N3CCN(c4ccc(C=O)o4)CC3)c(F)c2)C(=O)O1 [Compound No. 3, (S)—N-[[3-[3-Fluoro-4-[4-(5-formyl-2-furyl)-1-piperazinyl]phenyl]-2-oxo-5-oxazolidinyl]methyl]acetamide]",MIC,[1]; [23],0.25 µg/mL
same,MIC,[2]; [24],< 0.125 µg/mL
same,MIC,[3]; read-out: MIC,> 16 µg/mL
same,MIC,[4]; [25],1 µg/mL
same,MIC,[5]; [26],0.25 µg/mL
same,MIC,[6]; [24],0.25 µg/mL
same,MIC,[7]; [27],4 µg/mL
same,MIC,[8]; [23],0.5 µg/mL
same,MIC,[9]; [28],0.5 µg/mL
same,MIC,[10]; [25],0.5 µg/mL
same,MIC,[11]; [24],0.25 µg/mL
same,MIC,[12]; [29],0.25 µg/mL
same,MIC,[13]; [30],0.25 µg/mL
same,MIC,[14]; [25],1 µg/mL
same,MIC,[15]; [24],0.25 µg/mL
same,MIC,[16]; read-out: MIC,1 µg/mL
same,MIC,[17]; [27],8 µg/mL
same,MIC,[18]; [31],0.25 µg/mL
same,MIC,[19]; [32],1 µg/mL
same,MIC,[20]; [25],0.5 µg/mL
same,MIC,[21]; [33],0.25 µg/mL
same,MIC,[22]; [24],0.5 µg/mL
"O=C(NC[C@H]1CN(c2ccc(N3CCN(c4ccc([N+](=O)[O-])s4)CC3)c(F)c2)C(=O)O1)C(Cl)Cl [compound 9, (S)—N-[[3-[-3-Fluoro-4-[N-1-(5-nitro-2-thienyl)-piperazinyl]phenyl] -2-oxo-5-oxazolidinyl]methyl]dichloroacetamide]",MIC,[1],0.5 µg/mL
same,MIC,[2],0.25 µg/mL
same,MIC,[3],>8 µg/mL
same,MIC,[4],1 µg/mL
same,MIC,[5],0.25 µg/mL
same,MIC,[6],0.5 µg/mL
same,MIC,[7],>16 µg/mL
same,MIC,[8],0.5 µg/mL
same,MIC,[9],0.5 µg/mL
same,MIC,[10],0.5 µg/mL
same,MIC,[11],0.25 µg/mL
same,MIC,[12],0.25 µg/mL
same,MIC,[13],0.5 µg/mL
same,MIC,[14],2 µg/mL
same,MIC,[15],0.25 µg/mL
same,MIC,[16],1 µg/mL
same,MIC,[17],>16 µg/mL
same,MIC,[18],0.25 µg/mL
same,MIC,[19],0.5 µg/mL
same,MIC,[20],1 µg/mL
same,MIC,[21],0.5 µg/mL
same,MIC,[22],0.25 µg/mL
"CC(=O)NC[C@H]1CN(c2ccc(N3CCN(c4ccc([N+](=O)[O-])s4)CC3)cc2)C(=O)O1 [Compound No. 6, (S)—N-[[3-[4-[N-1-(5-nitro-2-thienyl)piperazinyl]-phenyl]-2-oxo-5-oxazolidinyl]-methyl]-acetamide]",MIC,[1],1 µg/mL
same,MIC,[2],0.25 µg/mL
same,MIC,[3],>16 µg/mL
same,MIC,[4],2 µg/mL
same,MIC,[5],0.25 µg/mL
same,MIC,[6],0.5 µg/mL
same,MIC,[7],16 µg/mL
same,MIC,[8],1 µg/mL
same,MIC,[9],1 µg/mL
same,MIC,[10],1 µg/mL
same,MIC,[11],0.25 µg/mL
same,MIC,[12],0.5 µg/mL
same,MIC,[13],0.5 µg/mL
same,MIC,[14],2 µg/mL
same,MIC,[15],0.25 µg/mL
same,MIC,[16],8 µg/mL
same,MIC,[17],16 µg/mL
same,MIC,[18],0.5 µg/mL
same,MIC,[19],2 µg/mL
same,MIC,[20],1 µg/mL
same,MIC,[21],0.5 µg/mL
same,MIC,[22],0.25 µg/mL

# Source: patent publication US20060293307A1, “Oxazolidinone derivatives as antimicrobials” (priority 2002, published 2006)
